Laboratory results from patent US11826373B2, “Methods for treatment of diseases” (Galera Labs, LLC, priority 2011, dated 2023).

experiment: Activity toward hydrogen peroxide; format: biochemical

| Molecule | activity toward hydrogen peroxide |
| --- | --- |
| CC(C)c1cc(C(=O)O)c([O-])c(C(C)C)c1.CC(C)c1cc(C(=O)O)c([O-])c(C(C)C)c1.[Cu+2] [CuDIPS, copper [II] diisopropylsalicylate] | significant activity |
| mangafodipir | significant activity |
| manganese [III] tetrakis-(5,10,15,20)-benzoic acid porphyrin [MnTBAP] | significant activity |
